The source of these data is patent publication US8785488B2 (Exelixis Patent Company LLC, priority 2009, dated 2014).

The target in one test is T1, human TGR5 (h-TGR5) (Homo sapiens, UniProt Q8TDU6).
T1 construct: expressed in transfected cells
T1 sequence (Q8TDU6 1-330): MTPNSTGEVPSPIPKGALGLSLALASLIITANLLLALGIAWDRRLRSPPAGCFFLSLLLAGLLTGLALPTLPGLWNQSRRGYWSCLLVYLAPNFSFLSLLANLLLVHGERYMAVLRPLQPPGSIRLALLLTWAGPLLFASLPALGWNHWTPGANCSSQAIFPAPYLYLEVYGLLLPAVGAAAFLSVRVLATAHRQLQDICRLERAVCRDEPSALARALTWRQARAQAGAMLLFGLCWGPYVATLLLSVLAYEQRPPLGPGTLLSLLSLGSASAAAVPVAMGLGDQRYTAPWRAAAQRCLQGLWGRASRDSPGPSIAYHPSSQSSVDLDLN
The experiment in a line: TGR5/CRE-Luciferiase Assay (HEK 293 hTGR5/CRE-Luc cells). The format is cell-based. Particulars: h-TGR5 CRE-Luc EC50, Table 1; read-out: CRE-Luc (EC50). The gist of the method:
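HEK293 cells stably carrying hTGR5 and a CRE-luciferase reporter were exposed to serially diluted compounds (diluted in DMEM with 5% DMSO) for 6 h. Cells were then lysed in luciferase buffer, luminescence was read, and EC50 values were derived from dose-response curves.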

The target of a further test is T2, h-TGR5 (Homo sapiens, UniProt Q8TDU6).
T2 construct: expressed in transfected cells
T2 sequence (Q8TDU6 1-330): T1 sequence (Q8TDU6 1-330)
Description: TGR5 cAMP Assay using Cisbio cAMP Dynamic2 htrf kit (hTGR5CRE-luc HEK 293 cells). In kind it is cell-based. The conditions noted are these: h-TGR5 cAMP EC50, Table 1; read-out: cAMP (EC50). The essentials: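 […], 4000 hTGR5CRE-luc HEK 293 cells per well, with 0.5 mM IBMX and d2-cAMP, were incubated 30 min at room temperature with compounds in 8-point half-log series, in quadruplicate.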

Take `COc1cc(-n2c(C(C)(C)c3ccc4onc(N)c4c3)cnc2SCc2c(F)cc(C(=O)O)cc2F)ccc1F` [4-[({5-[1-(3-amino-1,2-benzisoxazol-5-yl)-1-methylethyl]-1-[4-fluoro-3-(methyloxy)phenyl]-1H-imidazol-2-yl}thio)methyl]-3,5-difluorobenzoic acid]: the EC50 at human TGR5 (h-TGR5) and on h-TGR5 was < 100 nM in each case.
Take `COc1ccc(C(C)(C)c2cnc(SCc3ccc(C(N)=O)cc3F)n2-c2ccc(F)cc2)cc1OC` [4-({[5-{1-[3,4-bis(methyloxy)phenyl]-1-methylethyl}-1-(4-fluorophenyl)-1H-imidazol-2-yl]thio}methyl)-3-fluorobenzamide]: the EC50 on human TGR5 (h-TGR5) is 100 to 1000 nM; on h-TGR5 it was < 100 nM.
For the compound `COc1cc(C(C)(C)c2cnc(SCc3c(F)cc(CCCNC(=N)N)cc3F)n2-c2ccc(F)cc2)ccc1Cl` [1-{3-[4-({[5-{1-[4-chloro-3-(methyloxy)phenyl]-1-methylethyl}-1-(4-fluorophenyl)-1H-imidazol-2-yl]thio}methyl)-3,5-difluorophenyl]propyl}guanidine], the EC50 at human TGR5 (h-TGR5) and on h-TGR5 was < 100 nM throughout.
Turning to `CC(C)(c1ccc(Cl)c(Cl)c1)c1cnc(SCc2c(F)cc(-c3nnn[nH]3)cc2F)n1-c1ccc(F)cc1` [5-{4-[({5-[1-(3,4-dichlorophenyl)-1-methylethyl]-1-(4-fluorophenyl)-1H-imidazol-2-yl}thio)methyl]-3,5-difluorophenyl}-1H-tetrazole], the EC50 at human TGR5 (h-TGR5) and on h-TGR5 was 100 to 1000 nM throughout.
As for `COc1ccc(C(C)(C)c2cnc(SCc3ccc(F)c(S(N)(=O)=O)c3)n2-c2ccc(F)cc2)cc1OC` [5-({[5-{1-[3,4-bis(methyloxy)phenyl]-1-methylethyl}-1-(4-fluorophenyl)-1H-imidazol-2-yl]thio}methyl)-2-fluorobenzenesulfonamide], the EC50 on human TGR5 (h-TGR5) and at h-TGR5 was < 100 nM throughout.
On to `COc1cc(C(C)(C)c2cnc(SCC3CCN(S(C)(=O)=O)CC3)n2-c2ccc(F)cc2)ccc1Cl` [4-({[5-{1-[4-chloro-3-(methyloxy)phenyl]-1-methylethyl}-1-(4-fluorophenyl)-1H-imidazol-2-yl]thio}methyl)-1-(methylsulfonyl)piperidine], for which the EC50 at human TGR5 (h-TGR5) and on h-TGR5 was < 100 nM throughout.
For `COc1cc(-n2c(C(C)(C)c3ccc(S(N)(=O)=O)c(Cl)c3)cnc2SCc2ccc(C(=O)NCCC(=O)O)cc2F)ccc1F` [N-[(4-{[(5-{1-[4-(aminosulfonyl)-3-chlorophenyl]-1-methylethyl}-1-[4-fluoro-3-(methyloxy)phenyl]-1H-imidazol-2-yl)thio]methyl}-3-fluorophenyl)carbonyl]-beta-alanine], the EC50 on human TGR5 (h-TGR5) and on h-TGR5 was < 100 nM throughout.
Take `COc1ccc(C(C)(C)c2cnc(SCc3c(Cl)cccc3Cl)n2-c2ccc(F)cc2)cc1OC` [5-{1-[3,4-bis(methyloxy)phenyl]-1-methylethyl}-2-{[(2,6-dichlorophenyl)methyl]thio}-1-(4-fluorophenyl)-1H-imidazole]: the EC50 at human TGR5 (h-TGR5) and on h-TGR5 was < 100 nM each time.
Regarding `COc1ccc(C(C)(C)c2cnc(CNc3c(F)cccc3Cl)n2-c2ccc(F)cc2)cc1OC` [N-{[5-{1-[3,4-bis(methyloxy)phenyl]-1-methylethyl}-1-(4-fluorophenyl)-1H-imidazol-2-yl]methyl}-2-chloro-6-fluoroaniline], the EC50 was < 100 nM on human TGR5 (h-TGR5) and 100 to 1000 nM at h-TGR5.
The corresponding values for `COc1cc(-n2c(C(C)(C)c3ccc(S(N)(=O)=O)c(Cl)c3)cnc2SCc2c(F)cc(C(=O)O)cc2F)ccc1F` [4-{[(5-{1-[4-(aminosulfonyl)-3-chlorophenyl]-1-methylethyl}-1-[4-fluoro-3-(methyloxy)phenyl]-1H-imidazol-2-yl)thio]methyl}-3,5-difluorobenzoic acid] are < 100 nM and < 100 nM.
